# From ChEMBL document CHEMBL1255348, “Susceptibility testing of anidulafungin and voriconazole alone and in combination against conidia and hyphae of Aspergillus spp. under hypoxic conditions” (2008)
# *1 amine or outer side, *2 acyl side, *3 side chain or, on linkers, in order; H or OH if unused. Where a SMILES comes first, the peptide text is derived from it. Bridges are numbered along the chain shown (N, C = ends). [ ]: non-standard residue; d: D form. The star is where a group is joined. pTerphenylCO(4''-OnC5H11) = CCCCCOc1ccc(-c2ccc(-c3ccc(C(=O)*)cc3)cc2)cc1; Orn(4R-OH,5R-OH) = O=C([C@H](C[C@@H](O)[C@@H](O)N[*:3])N[*:1])[*:2]; hTyr(3S-OH,4S-OH) = N[C@H](C(=O)O)[C@H](O)[C@@H](O)c1ccc(O)cc1; Pro(3S-OH,4S-Me) = C[C@H]1CN[C@H](C(=O)O)[C@H]1O; Hyp = O=C(O)[C@@H]1C[C@@H](O)CN1
# How the values were obtained:
# Type in all cases: functional
# Aspergillus fumigatus [1] = test: Antimicrobial activity against Aspergillus fumigatus conidia isolated from aspergillosis patient after 48 hrs under hypoxic condition by broth microdilution method
# Aspergillus terreus [2] = test: Antimicrobial activity against Aspergillus terreus conidia isolated from aspergillosis patient after 48 hrs under hypoxic condition by broth microdilution method
# Aspergillus flavus [3] = test: Antimicrobial activity against Aspergillus flavus conidia isolated from aspergillosis patient after 48 hrs under hypoxic condition by broth microdilution method
# Aspergillus niger [4] = test: Antimicrobial activity against Aspergillus niger conidia isolated from aspergillosis patient after 48 hrs under hypoxic condition by broth microdilution method
# Aspergillus fumigatus [5] = test: Antimicrobial activity against Aspergillus fumigatus conidia isolated from aspergillosis patient after 48 hrs under hypoxic condition by broth microdilution method in presence of voriconazole
# Aspergillus terreus [6] = test: Antimicrobial activity against Aspergillus terreus conidia isolated from aspergillosis patient after 48 hrs under hypoxic condition by broth microdilution method in presence of voriconazole
# Aspergillus flavus [7] = test: Antimicrobial activity against Aspergillus flavus conidia isolated from aspergillosis patient after 48 hrs under hypoxic condition by broth microdilution method in presence of voriconazole
# Aspergillus niger [8] = test: Antimicrobial activity against Aspergillus niger conidia isolated from aspergillosis patient after 48 hrs under hypoxic condition by broth microdilution method in presence of voriconazole
# Aspergillus fumigatus [9] = test: Antimicrobial activity against Aspergillus fumigatus hyphae isolated from aspergillosis patient after 48 hrs under hypoxic condition by broth microdilution method
# Aspergillus terreus [10] = test: Antimicrobial activity against Aspergillus terreus hyphae isolated from aspergillosis patient after 48 hrs under hypoxic condition by broth microdilution method
# Aspergillus flavus [11] = test: Antimicrobial activity against Aspergillus flavus hyphae isolated from aspergillosis patient after 48 hrs under hypoxic condition by broth microdilution method
# Aspergillus niger [12] = test: Antimicrobial activity against Aspergillus niger hyphae isolated from aspergillosis patient after 48 hrs under hypoxic condition by broth microdilution method
# Aspergillus fumigatus [13] = test: Antimicrobial activity against Aspergillus fumigatus hyphae isolated from aspergillosis patient after 48 hrs under hypoxic condition by broth microdilution method in presence of voriconazole
# Aspergillus terreus [14] = test: Antimicrobial activity against Aspergillus terreus hyphae isolated from aspergillosis patient after 48 hrs under hypoxic condition by broth microdilution method in presence of voriconazole
# Aspergillus flavus [15] = test: Antimicrobial activity against Aspergillus flavus hyphae isolated from aspergillosis patient after 48 hrs under hypoxic condition by broth microdilution method in presence of voriconazole
# Aspergillus niger [16] = test: Antimicrobial activity against Aspergillus niger hyphae isolated from aspergillosis patient after 48 hrs under hypoxic condition by broth microdilution method in presence of voriconazole
SMILES,MIC (Aspergillus fumigatus [1]) [µg/mL],MIC (Aspergillus terreus [2]) [µg/mL],MIC (Aspergillus flavus [3]) [µg/mL],MIC (Aspergillus niger [4]) [µg/mL],fractional inhibitory concentration index (FICI) (Aspergillus fumigatus [5]),fractional inhibitory concentration index (FICI) (Aspergillus terreus [6]),fractional inhibitory concentration index (FICI) (Aspergillus flavus [7]),fractional inhibitory concentration index (FICI) (Aspergillus niger [8]),MIC (Aspergillus fumigatus [9]) [µg/mL],MIC (Aspergillus terreus [10]) [µg/mL],MIC (Aspergillus flavus [11]) [µg/mL],MIC (Aspergillus niger [12]) [µg/mL],fractional inhibitory concentration index (FICI) (Aspergillus fumigatus [13]),fractional inhibitory concentration index (FICI) (Aspergillus terreus [14]),fractional inhibitory concentration index (FICI) (Aspergillus flavus [15]),fractional inhibitory concentration index (FICI) (Aspergillus niger [16])
"CCCCCOc1ccc(-c2ccc(-c3ccc(C(=O)N[C@H]4C[C@@H](O)[C@@H](O)NC(=O)[C@@H]5[C@@H](O)[C@@H](C)CN5C(=O)[C@H]([C@@H](C)O)NC(=O)[C@H]([C@H](O)[C@@H](O)c5ccc(O)cc5)NC(=O)[C@@H]5C[C@@H](O)CN5C(=O)[C@H]([C@@H](C)O)NC4=O)cc3)cc2)cc1 [ANIDULAFUNGIN] ({pTerphenylCO(4''-OnC5H11)}-[Orn(4R-OH,5R-OH)]T[Hyp][hTyr(3S-OH,4S-OH)]T[Pro(3S-OH,4S-Me)]; lactam 1-C)",0.01,0.01,0.06,0.008,0.7,0.9,0.7,0.5,0.03,0.01,0.03,0.01,1,0.8,1,0.7
C[C@@H](c1ncncc1F)[C@](O)(Cn1cncn1)c1ccc(F)cc1F [VORICONAZOLE],0.5,1,1,1,–,–,–,–,1,1,2,1,–,–,–,–
